IC50 data for 22 molecules are collected here from patent US8163793B2, “Proline derivatives” (Hoffman-La Roche Inc., priority 2009, dated 2012).

Where a name gives a salt, the structure may show the parent alone.

In one assay the target is Cathepsin S (UniProt P25774). The assay is described as follows: Cathepsin enzyme inhibition assay (fluorogenic peptide substrate Z-Val-Val-Arg-AMC), Cathepsin S. The class given is biochemical, human and mouse. As to conditions: enzyme 1 nM, substrate 20 μM, pH 6.5; read-out: CatS IC50. The gist of the method:
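Human or mouse cathepsin S (1 nM) was run in 100 mM potassium phosphate pH 6.5 with 5 mM EDTA, 0.001% Triton X-100 and 5 mM DTT. The rise in AMC fluorescence from cleavage was measured, and IC50 values were calculated by standard methods and expressed in μM.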

The next assay deals with Cat L (UniProt P07711). The assay is described as follows: Cathepsin enzyme inhibition assay (fluorogenic peptide substrate Z-Val-Val-Arg-AMC), Cathepsin L. The class given is biochemical, human and mouse. Conditions: enzyme 1 nM, substrate 20 μM, pH 6.5; read-out: CatL IC50. The gist of the method: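 Cathepsin L at 1 nM was mixed with compound, then started with 20 μM Z-Val-Val-Arg-AMC in pH 6.5 potassium phosphate with EDTA, Triton X-100 and 5 mM DTT. AMC fluorescence (ex 360/em 465 nm) was followed over 20 min. IC50 is given in μM.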

The term IC50 denotes the midpoint of a concentration-inhibition curve. Consider `N#CC1(NC(=O)[C@@H]2C[C@@H](S(=O)(=O)c3ccc(N4CCn5cnnc5C4)cc3Cl)CN2C(=O)C2(C(F)(F)F)CC2)CC1` [Example 301, (2S,4R)-4-[2-Chloro-4-(5,6-dihydro-8H-[1,2,4]triazolo[4,3-a]pyrazin-7-yl)-benzenesulfonyl]-1-(1-trifluoromethyl-cyclopropanecarbonyl)-pyrrolidine-2-carboxylic acid (1-cyano-cyclopropyl)-amide], for which the IC50 was 0.12 nM at Cathepsin S and 1540 nM at Cat L.

`COCCOc1ccc(S(=O)(=O)[C@@H]2CC(C(=O)NC3(C#N)CC3)N(C(=O)C3(c4ccc(Cl)nc4)CC3)C2)c(Cl)c1` (stereo partly drawn) [Example 378, (R)-4-[2-Chloro-4-(2-methoxy-ethoxy)-benzenesulfonyl]-1-[1-(6-chloro-pyridin-3-yl)-cyclopropanecarbonyl]-pyrrolidine-2-carboxylic acid (1-cyano-cyclopropyl)-amide]: the figures for the IC50 on Cathepsin S and at Cat L were 0.1 nM and 200 nM, respectively.

In the case of `N#CC1(NC(=O)[C@@H]2C[C@@H](S(=O)(=O)c3ccc(OCC(F)(F)F)cc3Cl)CN2C(=O)C2(c3ccc(Cl)cc3)CC2)CC1` [Example 178, (2S,4R)-1-[1-(4-Chloro-phenyl)-cyclopropanecarbonyl]-4-[2-chloro-4-(2,2,2-trifluoro-ethoxy)-benzenesulfonyl]-pyrrolidine-2-carboxylic acid (1-cyano-cyclopropyl)-amide], the figures for the IC50 at Cathepsin S and on Cat L were 0.16 nM and 36 nM, respectively.

`N#CC1(NC(=O)[C@@H]2C[C@@H](S(=O)(=O)c3ccc(N4CCCCC4)cc3Cl)CN2)CC1` [Example 127, (2S,4R)-4-(2-Chloro-4-piperidin-1-yl-benzenesulfonyl)-pyrrolidine-2-carboxylic acid (1-cyano-cyclopropyl)-amide]: the IC50 turned out to be 2 nM on Cathepsin S and 6000 nM at Cat L.

For the molecule `CCN1CCN(c2ccc(S(=O)(=O)[C@@H]3C[C@@H](C(=O)NC4(C#N)CC4)N(C(=O)OC(C)(C)C)C3)c(Cl)c2)CC1` [Example 138, (2S,4R)-4-[2-Chloro-4-(4-ethyl-piperazin-1-yl)-benzenesulfonyl]-2-(1-cyano-cyclopropylcarbamoyl)-pyrrolidine-1-carboxylic acid tert.-butyl ester], the IC50 on Cathepsin S stood at 3.4 nM; at Cat L it was 28600 nM.

Take `N#CC1(NC(=O)[C@@H]2C[C@@H](S(=O)(=O)c3ccc(F)cc3Cl)CN2C(=O)C2(C(F)(F)F)CC2)CC1` [Example 145, (2S,4R)-4-(2-Chloro-4-fluoro-benzenesulfonyl)-1-(1-trifluoromethyl-cyclopropanecarbonyl)-pyrrolidine-2-carboxylic acid (1-cyano-cyclopropyl)-amide]: the IC50 amounted to 0.6 nM on Cathepsin S and 11800 nM on Cat L.

As for `C[C@H](Oc1ccc(S(=O)(=O)[C@@H]2C[C@H](C(=O)NC3(C#N)CC3)N(C(=O)C3CC3)C2)c(Cl)c1)C(F)(F)F` [Example 198, (2R,4R)-4-[2-Chloro-4-((S)-2,2,2-trifluoro-1-methyl-ethoxy)-benzenesulfonyl]-1-cyclopropanecarbonyl-pyrrolidine-2-carboxylic acid (1-cyano-cyclopropyl)-amide], the IC50 at Cathepsin S is 27 nM; at Cat L, not below 25000 nM.

In the case of `CN1CCN(c2ccc(S(=O)(=O)[C@@H]3C[C@@H](C(=O)NC4(C#N)CC4)N(C(=O)C4(C(F)(F)F)CC4)C3)c(Cl)c2)CC1` [Example 290, (2S,4R)-4-[2-Chloro-4-(4-methyl-piperazin-1-yl)-benzenesulfonyl]-1-(1-trifluoromethyl-cyclopropanecarbonyl)-pyrrolidine-2-carboxylic acid (1-cyano-cyclopropyl)-amide], the IC50 at Cathepsin S is 0.13 nM; at Cat L it was 1600 nM.

As for `N#CC1(NC(=O)[C@@H]2C[C@@H](S(=O)(=O)c3ccccc3Cl)CN2CC(F)(F)C(F)(F)F)CC1` [Example 92, (2S,4R)-4-(2-Chloro-benzenesulfonyl)-1-(2,2,3,3,3-pentafluoro-propyl)-pyrrolidine-2-carboxylic acid (1-cyano-cyclopropyl)-amide], the results for the IC50 on Cathepsin S and on Cat L were 41 nM and 61700 nM, respectively.

With `CC1(C(=O)N2C[C@H](S(=O)(=O)c3ccc(OCC(F)(F)F)cc3Cl)C[C@H]2C(=O)NC2(C#N)CC2)COC1` [Example 294, (2S,4R)-4-[2-Chloro-4-(2,2,2-trifluoro-ethoxy)-benzenesulfonyl]-1-(3-methyl-oxetane-3-carbonyl)-pyrrolidine-2-carboxylic acid (1-cyano-cyclopropyl)-amide], the IC50 at Cathepsin S is 0.353 nM; at Cat L, 7840 nM.

For the molecule `Cc1cc(N2C[C@H](S(=O)(=O)c3ccc(OCC(F)(F)F)cc3C(F)(F)F)C[C@H]2C(=O)NC2(C#N)CC2)n(-c2ccc(C(F)(F)F)cc2)n1` [Example 306, (2S,4R)-1-[5-Methyl-2-(4-trifluoromethyl-phenyl)-2H-pyrazol-3-yl]-4-[4-(2,2,2-trifluoro-ethoxy)-2-trifluoromethyl-benzenesulfonyl]-pyrrolidine-2-carboxylic acid (1-cyano-cyclopropyl)-amide], the results for the IC50 at Cathepsin S and at Cat L were 0.555 nM and 64500 nM, respectively.

As for `CCc1ccccc1S(=O)(=O)[C@H]1CN[C@H](C(=O)NC2(C#N)CC2)C1` [Example 11, (2S,4R)-4-(2-Ethyl-benzenesulfonyl)-pyrrolidine-2-carboxylic acid (1-cyano-cyclopropyl)-amide Hydrochloride], the IC50 was 30 nM on Cathepsin S and not below 25000 nM on Cat L.

With `N#CC1(NC(=O)[C@H]2CC(S(=O)(=O)c3ccccc3Cl)CN2C(=O)C(NCC(F)(F)F)c2ccc(Cl)cc2)CC1` (stereo partly drawn) [Example 421, (R)-4-(2-Chloro-benzenesulfonyl)-1-[2-(4-chloro-phenyl)-2-(2,2,2-trifluoro-ethylamino)-acetyl]-pyrrolidine-2-carboxylic acid (1-cyano-cyclopropyl)-amide], the IC50 is 11.5 nM on Cathepsin S and 4950 nM on Cat L.

Take `CN1C[C@H](S(=O)(=O)c2ccccc2Cl)C[C@H]1C(=O)NC1(C#N)CC1` [Example 93, (2S,4R)-4-(2-Chloro-benzenesulfonyl)-1-methyl-pyrrolidine-2-carboxylic acid (1-cyano-cyclopropyl)-amide]: the IC50 is 966 nM at Cathepsin S and not below 25000 nM on Cat L.

Take `CC(C)(C)OC(=O)N1C[C@H](S(=O)(=O)c2ccc(-n3cccn3)cc2Cl)C[C@H]1C(=O)NC1(C#N)CC1` [Example 120, (2S,4R)-4-(2-Chloro-4-pyrazol-1-yl-benzenesulfonyl)-2-(1-cyano-cyclopropylcarbamoyl)-pyrrolidine-1-carboxylic acid tert-butyl ester]: the IC50 at Cathepsin S was 2.8 nM; at Cat L, not below 25000 nM.

On to `Cc1cc(N2C[C@H](S(=O)(=O)c3ccccc3C(F)(F)F)C[C@H]2C(=O)NC2(C#N)CC2)n(C2CCOCC2)n1` [Example 307, (2S,4R)-1-[5-Methyl-2-(tetrahydro-pyran-4-yl)-2H-pyrazol-3-yl]-4-(2-trifluoromethyl-benzenesulfonyl)-pyrrolidine-2-carboxylic acid (1-cyano-cyclopropyl)-amide], for which the IC50 on Cathepsin S is 0.205 nM; on Cat L, 52100 nM.

Turning to `N#CC1(NC(=O)[C@@H]2C[C@@H](S(=O)(=O)c3ccccc3Cl)CN2C(=O)C(F)(F)c2ccc(Cl)cc2)CC1` [Example 442, (2S,4R)-4-(2-Chloro-benzenesulfonyl)-1-[2-(4-chloro-phenyl)-2,2-difluoro-acetyl]-pyrrolidine-2-carboxylic acid (1-cyano-cyclopropyl)-amide], the results for the IC50 at Cathepsin S and at Cat L were 0.615 nM and 240 nM, respectively.

For `COC(=O)c1ccc(C(=O)N2C[C@H](S(=O)(=O)c3ccccc3C(F)(F)F)C[C@H]2C(=O)NCC#N)cc1` [Example 137, 4-[(2S,4R)-2-(Cyanomethyl-carbamoyl)-4-(2-trifluoromethyl-benzenesulfonyl)-pyrrolidine-1-carbonyl]-benzoic acid methyl ester], the figures for the IC50 on Cathepsin S and on Cat L were 1 nM and not below 25000 nM, respectively.

Take `N#CC1(NC(=O)[C@@H]2C[C@@H](S(=O)(=O)c3ccc(N4CCN5CCC[C@H]5C4)cc3Cl)CN2C(=O)C2(C(F)(F)F)CC2)CC1` [Example 299, (2S,4R)-4-((S)-2-Chloro-4-hexahydro-pyrrolo[1,2-a]pyrazin-2-yl-benzenesulfonyl)-1-(1-trifluoromethyl-cyclopropanecarbonyl)-pyrrolidine-2-carboxylic acid (1-cyano-cyclopropyl)-amide]: the values for the IC50 at Cathepsin S and at Cat L were 0.17 nM and 1180 nM, respectively.

In the case of `CC(C)C[C@]1(C(=O)NC2(C#N)CC2)C[C@H](S(=O)(=O)c2ccccc2)[C@@H](c2ccc(F)cc2)N1` [Example 126, (2R,4S,5R)-4-Benzenesulfonyl-5-(4-fluoro-phenyl)-2-isobutyl-pyrrolidine-2-carboxylic acid (1-cyano-cyclopropyl)-amide], the values for the IC50 at Cathepsin S and at Cat L were 1250 nM and not below 25000 nM, respectively.

As for `N#CC1(NC(=O)[C@@H]2C[C@@H](S(=O)(=O)c3ccccc3Cl)CN2S(=O)(=O)c2ccc(-c3ccccc3)cc2)CC1` [Example 316, (2S,4R)-1-(Biphenyl-4-sulfonyl)-4-(2-chloro-benzenesulfonyl)-pyrrolidine-2-carboxylic acid (1-cyano-cyclopropyl)-amide], the IC50 on Cathepsin S is 0.3 nM; at Cat L, 5240 nM.

On to `CC(=O)N1C[C@H](S(=O)(=O)c2ccc(OC(C)C(F)(F)F)cc2Cl)C[C@H]1C(=O)NC1(C#N)CC1` (stereo partly drawn) [Example 132, (2S,4R)-1-Acetyl-4-[2-chloro-4-(2,2,2-trifluoro-1-methyl-ethoxy)-benzenesulfonyl]-pyrrolidine-2-carboxylic acid (1-cyano-cyclopropyl)-amide], for which the IC50 at Cathepsin S was found to be 3.8 nM; on Cat L, 35000 nM.
